PMC3742170, “Enzymatic Properties of Populus α- and β-NAD-ME Recombinant Proteins” (International Journal of Molecular Sciences, 2013)

Key:
[1] = molecular target: T1, PtNAD-ME2 (Populus trichocarpa, UniProt B9MVC4); assay: inhibition of malate decarboxylation, NADH at […] nm; format: biochemical; conditions: inhibitor; nonsaturating malate, saturating NAD, optimum pH 7.2
T1 construct: gene POPTR_014G043700; mature form without mitochondrial signal peptide; pGEX-6p-3, N-terminal GST cut with PreScission; E. coli BL21
T1 sequence (B9MVC4 36-627): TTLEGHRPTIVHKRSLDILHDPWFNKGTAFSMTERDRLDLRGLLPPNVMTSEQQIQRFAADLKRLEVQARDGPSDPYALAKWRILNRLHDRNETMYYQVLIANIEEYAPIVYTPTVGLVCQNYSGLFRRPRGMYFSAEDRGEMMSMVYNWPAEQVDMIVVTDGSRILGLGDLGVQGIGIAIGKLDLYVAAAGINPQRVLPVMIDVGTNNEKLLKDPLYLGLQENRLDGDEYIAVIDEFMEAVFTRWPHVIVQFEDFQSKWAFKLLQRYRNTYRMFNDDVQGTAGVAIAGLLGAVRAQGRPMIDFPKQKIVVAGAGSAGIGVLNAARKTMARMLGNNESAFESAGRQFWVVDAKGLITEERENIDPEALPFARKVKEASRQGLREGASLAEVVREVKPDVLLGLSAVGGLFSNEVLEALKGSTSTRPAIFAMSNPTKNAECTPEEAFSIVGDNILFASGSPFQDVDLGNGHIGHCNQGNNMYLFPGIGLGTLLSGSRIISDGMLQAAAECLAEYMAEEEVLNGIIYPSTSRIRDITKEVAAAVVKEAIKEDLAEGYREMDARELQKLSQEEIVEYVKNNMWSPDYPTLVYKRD

[2] = molecular target: T2, PtNAD-ME4 (Populus trichocarpa, UniProt A0A2K1XS69); assay: inhibition of malate decarboxylation, NADH at […] nm; format: biochemical; conditions: inhibitor; nonsaturating malate, saturating NAD, optimum pH 7.4
T2 construct: gene POPTR_014G079900; mature form without mitochondrial signal peptide; pGEX-6p-3, N-terminal GST cut with PreScission; E. coli BL21
T2 sequence (A0A2K1XS69 22-607): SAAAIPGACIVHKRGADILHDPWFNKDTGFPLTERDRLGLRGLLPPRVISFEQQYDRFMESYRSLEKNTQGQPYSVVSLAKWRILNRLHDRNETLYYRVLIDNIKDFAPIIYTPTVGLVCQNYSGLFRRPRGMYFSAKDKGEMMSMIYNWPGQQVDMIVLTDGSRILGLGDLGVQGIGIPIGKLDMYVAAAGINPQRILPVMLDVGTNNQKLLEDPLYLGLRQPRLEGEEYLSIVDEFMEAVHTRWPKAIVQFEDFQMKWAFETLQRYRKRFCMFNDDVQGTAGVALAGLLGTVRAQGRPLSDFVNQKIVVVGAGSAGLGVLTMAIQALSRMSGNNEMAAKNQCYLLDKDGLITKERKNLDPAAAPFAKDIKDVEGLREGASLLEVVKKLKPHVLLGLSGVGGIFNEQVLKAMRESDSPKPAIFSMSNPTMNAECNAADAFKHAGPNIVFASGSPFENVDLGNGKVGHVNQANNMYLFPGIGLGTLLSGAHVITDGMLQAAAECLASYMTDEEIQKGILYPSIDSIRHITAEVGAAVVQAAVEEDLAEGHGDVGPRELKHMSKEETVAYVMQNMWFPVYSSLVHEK

[3] = molecular target: T3, PtNAD-ME3 (Populus trichocarpa, UniProt B9GPX3); assay: inhibition of malate decarboxylation, NADH at […] nm; format: biochemical; conditions: inhibitor; nonsaturating malate, saturating NAD, optimum pH 7.4
T3 construct: gene POPTR_002G156000; mature form without mitochondrial signal peptide; pGEX-6p-3, N-terminal GST cut with PreScission; E. coli BL21; about 61 kDa on SDS-PAGE
T3 sequence (B9GPX3 23-607): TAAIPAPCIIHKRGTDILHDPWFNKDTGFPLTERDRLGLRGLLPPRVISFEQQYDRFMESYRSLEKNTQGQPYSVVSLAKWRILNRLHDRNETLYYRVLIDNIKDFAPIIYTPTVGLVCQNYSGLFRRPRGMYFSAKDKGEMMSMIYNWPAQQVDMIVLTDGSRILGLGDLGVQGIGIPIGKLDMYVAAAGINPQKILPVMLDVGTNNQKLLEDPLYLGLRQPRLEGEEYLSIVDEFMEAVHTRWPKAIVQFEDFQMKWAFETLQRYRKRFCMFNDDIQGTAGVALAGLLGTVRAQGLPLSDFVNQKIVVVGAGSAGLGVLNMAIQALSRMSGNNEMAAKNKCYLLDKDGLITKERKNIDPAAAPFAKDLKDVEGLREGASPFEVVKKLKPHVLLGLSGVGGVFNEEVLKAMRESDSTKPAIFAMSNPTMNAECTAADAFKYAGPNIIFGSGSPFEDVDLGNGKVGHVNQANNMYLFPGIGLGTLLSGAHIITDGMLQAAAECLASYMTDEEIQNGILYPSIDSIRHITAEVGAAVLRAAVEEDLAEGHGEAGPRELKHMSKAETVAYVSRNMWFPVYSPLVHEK

[4] = molecular target: T4, PtNAD-ME1 (Populus trichocarpa, UniProt A0ACC0TE46); assay: inhibition of malate decarboxylation, NADH at […] nm; format: biochemical; conditions: inhibitor; nonsaturating malate, saturating NAD, optimum pH 7.2
T4 construct: gene POPTR_002G135300v4; mature form without mitochondrial signal peptide; pGEX-6p-3, N-terminal GST cut with PreScission; E. coli BL21; about 67 kDa on SDS-PAGE; EC 1.1.1.39
T4 sequence (A0ACC0TE46 34-627): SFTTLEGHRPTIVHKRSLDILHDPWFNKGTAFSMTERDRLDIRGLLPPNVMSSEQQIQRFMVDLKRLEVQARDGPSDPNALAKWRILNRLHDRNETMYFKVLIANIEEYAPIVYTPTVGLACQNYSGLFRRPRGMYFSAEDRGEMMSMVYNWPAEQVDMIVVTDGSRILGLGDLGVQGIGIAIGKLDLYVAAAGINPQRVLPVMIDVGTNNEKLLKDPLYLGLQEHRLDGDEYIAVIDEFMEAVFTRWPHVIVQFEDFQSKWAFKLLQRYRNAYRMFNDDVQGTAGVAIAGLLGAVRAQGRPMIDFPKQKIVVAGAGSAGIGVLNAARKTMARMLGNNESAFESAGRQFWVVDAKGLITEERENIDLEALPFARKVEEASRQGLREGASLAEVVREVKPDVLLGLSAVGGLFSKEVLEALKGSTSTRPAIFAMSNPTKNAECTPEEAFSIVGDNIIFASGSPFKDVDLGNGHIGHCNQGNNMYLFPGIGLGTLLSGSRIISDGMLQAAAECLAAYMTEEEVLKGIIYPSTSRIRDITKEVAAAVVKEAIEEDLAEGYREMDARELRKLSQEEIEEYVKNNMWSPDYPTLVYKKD

[5] = substrate: NC(=O)c1ccc[n+]([C@@H]2O[C@H](COP(=O)(O)OP(=O)(O)OC[C@H]3O[C@@H](n4cnc5c(N)ncnc54)[C@H](O)[C@@H]3O)[C@@H](O)[C@H]2O)c1; assay: purified protein; format: biochemical, Populus trichocarpa; conditions: saturating malate, 10 mM MnCl2, 150 mM Mes/NaOH, optimum pH 7.4
[6] = substrate: O=C(O)C[C@H](O)C(=O)O; assay: purified protein; format: biochemical, Populus trichocarpa; conditions: saturating NAD, 10 mM MnCl2, 150 mM Mes/NaOH, optimum pH 7.4

`O=C(O)CC(=O)C(=O)O` [oxalacetate] was tested, and the “% activity” value [1] was “OAA and citrate inhibited the activities of all”, the “% activity” value [2] was “OAA and citrate inhibited the activities of all” and the “% activity” value [3] was “OAA and citrate inhibited the activities of all”. The “% activity” value [4] was “OAA and citrate inhibited the activities of all”.

For `O=C(O)CC(O)(CC(=O)O)C(=O)O` [citrate], the “% activity” value [1] was “OAA and citrate inhibited the activities of all”, the “% activity” value [2] was “OAA and citrate inhibited the activities of all” and the “% activity” value [3] was “OAA and citrate inhibited the activities of all”. For the same molecule, the “% activity” value [4] was “OAA and citrate inhibited the activities of all”.

B1: PtNAD-ME3 (Populus trichocarpa) (protein)
chain: T3 sequence (B9GPX3 23-607)
notes: mature form without mitochondrial signal peptide; pGEX-6p-3, N-terminal GST cut with PreScission; E. coli BL21; about 61 kDa on SDS-PAGE
B1 was tested, and the Km [5] was 450 µM, the kcat [5] was 1.3 s⁻¹ and the kcat/Km [5] was 2900 M⁻¹ s⁻¹. The Km [6] was 1300 µM.
